Values of other authors as cited in patent US11672748B2, “Aqueous hair conditioner compositions containing solubilized anti-dandruff actives” (The Procter & Gamble Company, priority 2020, dated 2023).

Settings: in water

| Solubility in H2O (g/L) | Structure (SMILES) |
| --- | --- |
| (lower than 0.1) g/L | CCCCCCCCCCCC(=O)N(C)CC(=O)OC(C)C [Isoropyl N-Lauroyl Sarcosinate] |
| Negligible (lower than 0.1) g/L | C=CC(C)CCCC(C)(C)O (centres unmarked) [Dihydro Myrcenol] |
